In patent US11780851B2, “LRRK2 inhibitors” (H. Lundbeck A/S, priority 2021, dated 2023):
Read-outs that look alike come from different tables or passages of the source.

Tests used:
[1] = molecular target: T1, LRRK2 G2019S (Homo sapiens, UniProt Q5S007, G2019S); test: LRRK2 G2019S kinase activity assay (LanthaScreen TR-FRET); format: biochemical; conditions: 250 pM LRRK2 G2019S, 1.3 mM ATP, 3 h at 30° C.; n≥2 tests
T1 construct: purchased Invitrogen (Life Technologies Corporation)
Protocol: (§1) LRRK2 kinase activity was measured using a LanthaScreen kinase activity assay available from Invitrogen (Life Technologies Corporation). The assay is a homogeneous time resolved-fluorescence resonance energy transfer (TR-FRET) assay that measures phosphorylation of a fluorescein-labelled peptide substrate Fluorescein-ERM LRRKtide obtainable from Life Technologies Corporation as a result of LRRK2 kinase activity. The phosphorylated peptide is recognized by a terbium-labelled phospho-specific anti-LRRKtide antibody (pLRRKtide antibody), obtainable from Life Technologies Corporation and, subsequently, the phosphorylated LRRKtide can be quantified by the extent of TR-FRET between the terbium donor and fluorescein acceptor. The LRRK2 kinase was obtained from Invitrogen (Life Technologies Corporation) and comprises residue 970 to 2527 of the full length human wild-type LRRK2 kinase, or a similar sequence with the G2019S mutation. As discussed above, this mutation increases the kinase activity relative to the wild type. The kinase reactions were performed in a 20 μL volume in 384-well plates. […] The mixture was further incubated for 30 minutes at RT. […] The measurement was repeated 30 times for fluorescein and 30 times for terbium emission with a 1000 μs time window between repeats. TR-FRET measurements were performed on a Biotek Synergy plate. The TR-FRET signal was calculated as the emission-ratio at 520 nm over 495 nm. The TR-FRET ratio readout for test compounds was normalized to 0% inhibition corresponding to TR-FRET ratio measured in control wells with no inhibition of the kinase activity and 100% inhibition corresponding to TR-FRET ratio measured in control wells with inhibitor. […] C is the IC50 value and D is the Hill slope coefficient. IC50 estimates were obtained from independent experiment and the logarithmic average was calculated.

[2] = molecular target: T2, LRRK2 WT (Homo sapiens, UniProt Q5S007); test: LRRK2 wild-type kinase activity assay (LanthaScreen TR-FRET); format: biochemical; conditions: 1 nM LRRK2 WT, 1.3 mM ATP, 3.5 h at 30° C.; n≥2 tests
T2 construct: comprises residue 970 to 2527 of the full length human wild-type LRRK2 kinase; purchased Invitrogen (Life Technologies Corporation)
T2 sequence (Q5S007 970-2527): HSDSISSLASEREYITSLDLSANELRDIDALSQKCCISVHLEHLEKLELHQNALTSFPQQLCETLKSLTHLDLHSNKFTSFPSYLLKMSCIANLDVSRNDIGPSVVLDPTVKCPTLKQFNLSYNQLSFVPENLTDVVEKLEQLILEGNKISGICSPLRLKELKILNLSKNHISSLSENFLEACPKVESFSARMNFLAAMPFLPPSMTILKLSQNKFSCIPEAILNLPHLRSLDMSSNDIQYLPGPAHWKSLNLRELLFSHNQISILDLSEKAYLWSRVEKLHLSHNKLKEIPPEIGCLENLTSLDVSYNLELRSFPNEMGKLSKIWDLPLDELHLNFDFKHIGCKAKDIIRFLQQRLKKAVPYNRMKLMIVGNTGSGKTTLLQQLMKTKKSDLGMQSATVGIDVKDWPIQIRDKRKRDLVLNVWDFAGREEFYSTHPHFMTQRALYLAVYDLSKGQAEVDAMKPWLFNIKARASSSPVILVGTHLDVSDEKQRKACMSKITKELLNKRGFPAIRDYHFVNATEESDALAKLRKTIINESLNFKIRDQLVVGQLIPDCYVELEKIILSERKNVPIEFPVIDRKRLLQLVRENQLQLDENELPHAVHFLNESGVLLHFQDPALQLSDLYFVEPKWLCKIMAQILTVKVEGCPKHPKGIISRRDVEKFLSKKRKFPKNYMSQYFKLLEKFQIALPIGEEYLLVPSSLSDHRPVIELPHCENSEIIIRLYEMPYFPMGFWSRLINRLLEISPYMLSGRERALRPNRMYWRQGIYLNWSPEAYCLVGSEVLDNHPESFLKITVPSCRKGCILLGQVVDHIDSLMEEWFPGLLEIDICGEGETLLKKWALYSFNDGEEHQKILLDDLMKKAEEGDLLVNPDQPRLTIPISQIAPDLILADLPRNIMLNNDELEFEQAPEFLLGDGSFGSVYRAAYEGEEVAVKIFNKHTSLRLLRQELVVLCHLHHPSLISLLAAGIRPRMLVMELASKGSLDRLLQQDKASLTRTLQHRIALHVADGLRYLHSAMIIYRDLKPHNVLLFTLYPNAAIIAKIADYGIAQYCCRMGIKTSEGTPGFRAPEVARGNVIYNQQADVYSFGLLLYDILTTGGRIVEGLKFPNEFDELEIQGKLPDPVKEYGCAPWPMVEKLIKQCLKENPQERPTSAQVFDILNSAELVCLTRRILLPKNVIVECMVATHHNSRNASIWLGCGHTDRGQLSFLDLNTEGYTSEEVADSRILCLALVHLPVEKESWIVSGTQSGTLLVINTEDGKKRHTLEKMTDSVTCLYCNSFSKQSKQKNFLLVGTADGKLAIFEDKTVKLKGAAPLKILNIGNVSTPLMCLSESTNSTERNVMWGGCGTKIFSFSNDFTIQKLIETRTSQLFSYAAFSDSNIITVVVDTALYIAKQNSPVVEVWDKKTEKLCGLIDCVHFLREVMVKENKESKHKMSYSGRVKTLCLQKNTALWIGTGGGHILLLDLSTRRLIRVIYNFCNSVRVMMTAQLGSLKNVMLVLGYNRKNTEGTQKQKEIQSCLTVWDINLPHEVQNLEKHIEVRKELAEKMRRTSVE
Protocol: as §1

[3] = Hepatocyte intrinsic clearance assay; format: in vitro ADME, human; conditions: human, pooled donor, cryopreserved hepatocytes, pH 7.4, 0.1 μM, 2 h at 37° C., 1×10^6 hepatocytes/mL; * measured on 3 separate occasions, ** on a single occasion
Protocol: Test compounds (final concentration 0.1 μM, 0.05% organic) were incubated for 2 h at 37° C., with shaking, in supplemented Leibovitz L-15 media (pH7.4) containing commercially sourced, pooled donor, cryopreserved hepatocytes (final concentration 1×10^6 hepatocytes/m L). The CLint reactions (350 μL) were initiated by addition of test compound. Aliquots (25 μL) were taken at 1, 5, 10, 15, 30, 60, 90 and 120 minutes and then protein crashed with ice-cold acetonitrile containing internal standard (150 μL) then centrifuged (1960 g for 20 minutes at 4° C.). Supernatant was diluted (1:4) with deionized water then analyzed by liquid chromatography (LC)-tandem mass spectrometry (MS/MS). The intrinsic clearances (CLint) were calculated from the slope (k) of the linear regressions of percentages of compound remaining in incubation against incubation time, according to equations 2 and 3.

[4] = Rat B/P (brain disposition); format: in vivo, male Sprague-Dawley rats; conditions: male, Sprague-Dawley; for concentration at 0.5 h / Kp uu at 0.5 h / Kp at 0.5 h: time point 0.5 h; for concentration at 0.5 h / Kp at 0.5 h / concentration at 1 h / Kp at 1 h: mean ± stdev; for Kp uu at 0.5 h / Kp at 0.5 h / Kp at 1 h / Kp uu at 1 h: brain/plasma; for Kp uu at 0.5 h / Kp uu at 1 h: fubrain from brain homogenate; for Kp at 0.5 h / Kp at 1 h: n = 3; for concentration at 1 h / Kp at 1 h / Kp uu at 1 h: time point 1.0 h
Protocol: Brain disposition was evaluated for each compound in male Sprague-Dawley rats (n=3, standard body weight). […] Isolated plasma and brain homogenates were extracted by standard protein precipitation in acetonitrile, containing internal standard, followed by LC-MS/MS analysis using an optimized analytical method. Concentrations of test compound in plasma and brain were quantified against matrix matched calibration standards. The total plasma and brain concentration data are presented in Table 7 alongside the calculated brain Kp (total brain concentration:total plasma concentration ratio).

[5] = Free fraction in plasma (equilibrium dialysis); format: in vitro ADME, male Sprague-Dawley rat; conditions: rat plasma, 1 μM, 5 h at 37° C.
Protocol: The free fractions in male Sprague-Dawley rat or female Gottingen minipig plasma (fuplasma) and rat brain homogenate (fubrain) were determined by equilibrium dialysis using 96-well HTD-dialysis plates with dialysis membranes (molecular weight cut off 12-14 KDa). One side of the HTD-dialysis plate was loaded with matrix (plasma or brain homogenate) and the other side with buffer (100 mM sodium phosphate buffer, pH 7.4). Test compounds were dissolved in DMSO then spiked (5 μL of 0.2 mM) into blank (995 μL) plasma or diluted brain homogenate (1:4 ratio in phosphate buffer) giving a final nominal concentration 1 μM (≤0.5% DMSO). The matrices were loaded into respective chambers and equilibrated against phosphate buffer for 5 h at 37° C. (in a humidified air incubator with 5% CO2 with shaking). Samples from both chambers (buffer and plasma or brain homogenate) were aliquoted to fresh 96-well polypropylene plates then matrix matched using an equal volume of opposite blank matrix before extraction with cold solvent (3 volumes acetonitrile) containing an appropriate bioanalytical internal standard. After centrifugation (20 min, 3200 g, 4° C.) the supernatants were diluted with appropriate volumes of water and compound concentrations were quantified by LC/MS-MS against matrix matched calibration standards. The fuplasma and fubrain were calculated as a percent free according to equation 4 below.
Where [F] is the analyte concentration on the buffer (receiver) side of the membrane; [T] is the analyte concentration on the plasma or brain (donor) side of the membrane; [TO] is the analyte concentration in the plasma or brain sample at time zero; D is matrix dilution factor which is determined as 4 for brain matrix and 1 for plasma matrix in these assays.

[6] = brain, oral gavage 5 mg/kg, n = 3, read-out: Total brain concentration
[7] = plasma, oral gavage 5 mg/kg, n = 3, read-out: Total plasma concentration
[8] = brain, oral gavage 10 mg/kg, n = 3, read-out: Total brain concentration
[9] = po, 10 mg/kg, oral gavage 10 mg/kg
[10] = plasma, oral gavage 10 mg/kg, n = 3, read-out: Total plasma concentration

T1 sequence (Q5S007 970-2527 G2019S): as the sequence (Q5S007 970-2527) above, with G1050S counted along it

IC50 [1] [nM]	IC50 [2] [nM]	CLint scaled at 0.1 μM [3] [mL/min/kg]	fuplasma (% free) [5] [% free]	concentration at 1 h [4, 8] [ng/g]	Kp at 1 h ([4]; oral gavage 10 mg/kg)	Kp uu at 1 h [4, 9]	concentration at 1 h [4, 10] [ng/mL]	Structure (SMILES)	further results
5.9	17	< 4	–	–	–	–	–	[2H]C([2H])([2H])c1c2c(nn1[C@@H]1CCOC[C@H]1F)OCCCn1nc(Cl)c3cnc(nc31)N2 (single isomer, unassigned) [Example 62, (−)-8-Chloro-2-((3R,4S) or (3S,4R)-3-fluorotetrahydro-2H-pyran-4-yl)-3-(methyl-d3)-2,4,12,13-tetrahydro-11H-5,7-(azenometheno)dipyrazolo[3,4-b:5′,1′-g][1]oxa[4,6,8]triazacycloundecine]	–
6.2	16	8.5	–	–	–	–	–	CCc1c2c(nn1[C@H]1CC[C@H](OC)CC1)OCCCn1nc(Cl)c3cnc(nc31)N2 [Example 57, 8-Chloro-3-ethyl-2-((1r,4r)-4-methoxycyclohexyl)-2,4,12,13-tetrahydro-11H-5,7-(azenometheno)dipyrazolo[3,4-b:5′,1′-g][1]oxa[4,6,8]triazacycloundecine]	–
3.1	13	–	24.8	–	–	–	–	Cc1c2c(nn1[C@H]1CCOC[C@]1(C)F)OCCCn1nc(Cl)c3cnc(nc31)N2 (single isomer, unassigned) [Example 47, (+)-8-Chloro-2-((3R,4S) or (3S,4R)-3-Fluoro-3-methyltetrahydro-2H-pyran-4-yl)-3-methyl-2,4,12,13-tetrahydro-11H-5,7-(azenometheno)dipyrazolo[3,4-b:5′,1′-g][1]oxa[4,6,8]triazacycloundecine]	concentration at 0.5 h [4, 6]: 235 ± 119 ng/g; Kp uu at 0.5 h ([4]; oral gavage 5 mg/kg): 0.57 ± 0.17; Kp at 0.5 h ([4]; oral gavage 5 mg/kg): 2.69 ± 0.83; concentration at 0.5 h [4, 7]: 83 ± 27 ng/mL
5.1	16	–	12.0	110 ± 18	2.87 ± 0.04	0.65 ± 0.01	38 ± 6	Cc1c2c(nn1[C@H]1CC[C@H](F)CC1)OCCCn1nc(Cl)c3cnc(nc31)N2 [Example 25, 8-Chloro-2-((1r,4r)-4-fluorocyclohexyl)-3-methyl-2,4,12,13-tetrahydro-11H-5,7-(azenometheno)dipyrazolo[3,4-b:5′,1′-g][1]oxa[4,6,8]triazacycloundecine]	–
5.9	18	–	11.0	–	–	–	–	Cc1c2c(nn1C13CC(C#N)(C1)C3)OCCCn1nc(Cl)c3cnc(nc31)N2 [Example 33, 3-(8-Chloro-3-methyl-12,13-dihydro-11H-5,7-(azenometheno)dipyrazolo[3,4-b:5′,1′-g][1]oxa[4,6,8]triazacycloundecin-2(4H)-yl)bicyclo[1.1.1]pentane-1-carbonitrile]	concentration at 1 h [4, 6]: 37 ± 1 ng/g; Kp uu at 1 h ([4]; oral gavage 5 mg/kg): 0.4 ± 0.07; Kp at 1 h ([4]; oral gavage 5 mg/kg): 0.87 ± 0.15; concentration at 1 h [4, 7]: 43 ± 9 ng/mL
12	28	–	12.7	–	–	–	–	Cc1c2c(nn1[C@@H]1CC1(F)F)OCCCn1nc(Cl)c3cnc(nc31)N2 (single isomer, unassigned) [Example 40, (+)-(R) or (S)-8-Chloro-2-(2,2-difluorocyclopropyl)-3-methyl-2,4,12,13-tetrahydro-11H-5,7-(azenometheno)dipyrazolo[3,4-b:5′,1′-g][1]oxa[4,6,8]triazacycloundecine]	concentration at 0.5 h [4, 6]: 138 ± 12 ng/g; Kp uu at 0.5 h ([4]; oral gavage 5 mg/kg): 0.72 ± 0.08; Kp at 0.5 h ([4]; oral gavage 5 mg/kg): 1.93 ± 0.22; concentration at 0.5 h [4, 7]: 72 ± 8 ng/mL
6.2	19	–	30.2	502 ± 92	1.62 ± 0.16	0.38 ± 0.04	314 ± 83	Clc1nn2c3nc(ncc13)Nc1c(nn(C3CCOCC3)c1C1CC1)OCCC2 [Example 10, 8-Chloro-3-cyclopropyl-2-(tetrahydro-2H-pyran-4-yl)-2,4,12,13-tetrahydro-11H-5,7-(azenometheno)dipyrazolo[3,4-b:5′,1′-g][1]oxa[4,6,8]triazacycloundecine]	–
7	19	5	–	–	–	–	–	[2H]C([2H])([2H])c1c2c(nn1[C@H]1CCCOCC1)OCCCn1nc(Cl)c3cnc(nc31)N2 (single isomer, unassigned) [Example 58, (+)-(R) or (S)-8-Chloro-3-(methyl-d3)-2-(oxepan-4-yl)-2,4,12,13-tetrahydro-11H-5,7-(azenometheno)dipyrazolo[3,4-b:5′,1′-g][1]oxa[4,6,8]triazacycloundecine]	–
2.4	6.8	4	–	–	–	–	–	[2H]C([2H])([2H])c1c2c(nn1C1([2H])CCOCC1)OCCCn1nc(Cl)c3cnc(nc31)N2 [Example 15, 8-Chloro-3-(methyl-d3)-2-(tetrahydro-2H-pyran-4-yl-4-d)-2,4,12,13-tetrahydro-11H-5,7-(azenometheno)dipyrazolo[3,4-b:5′,1′-g][1]oxa[4,6,8]triazacycloundecine]	–
7.4	23	–	32.2	744 ± 281	2.19 ± 0.25	0.29 ± 0.03	336 ± 96	Cc1c2c(nn1C1CCOCC1)OCCCn1nc(C(F)(F)F)c3cnc(nc31)N2 [Example 5, 3-Methyl-2-(tetrahydro-2H-pyran-4-yl)-8-(trifluoromethyl)-2,4,12,13-tetrahydro-11H-5,7-(azenometheno)dipyrazolo[3,4-b:5′,1′-g][1]oxa[4,6,8]triazacycloundecine]	–
